# Assays:
# [1] = test system: Meis1 transcriptional activity; experiment: Meis1 luciferase transcriptional activity assay in NRVMs; assay type: cell-based, rat; details: 10-500 nM, compared to control (PBS for neomycin, paromomycin; DMSO for rutin, hesperidin)
# Source text: (§1) S1: HOXB13 DNA binding domain, S2: Meis1 DNA binding domain, and S3: Interacting interface between Meis1 and HOXB13 (PDB ID: 5EGO). […] Data are mean±s.e.m.; unpaired two-sided t-test. * P<0.05, ** P<0.01, *** P<0.001.
# [2] = test system: HOXB13 transcriptional activity; experiment: HOXB13 luciferase transcriptional activity assay in NRVMs; assay type: cell-based, rat; details: 10-500 nM, compared to control (PBS for neomycin, paromomycin; DMSO for rutin, hesperidin)
# Source text: as §1
# [3] = test system: cardiomyocytes in the adult heart; experiment: Cardiomyocyte proliferation in adult mice with no injury stimuli; assay type: in vivo, mouse
# Method: In another exemplary method, cardiomyocyte proliferation in mice was assessed in the presence of paromomycin and paromomycin-neomycin. Based on the data resulting from the in vitro screening coupled and luciferase transcription activity assays detailed in the exemplary methods herein, paromomycin was initially selected to study its capacity to prolong cardiomyocytes proliferation in adult mice with no injury stimuli. The effect of paromomycin (Paro) (200 mg/kg/day, i.p.) and paromomycin-neomycin (Paro/Neo) combo (300 mg/kg/day, i.p.) was assessed after 2 weeks of injection on cell proliferation indices, cytokinesis, cardiomyocyte cell size, isolated cardiac cell count, and nucleation on the isolated cardiomyocytes in the adult heart (FIG. 3A, FIG. 4F). […] Animals. Mice were housed in a 12:12 h light: dark cycle in a temperature-controlled room with free access to water and food. Littermate controls were used whenever possible. Both male and female mice were used on age-matched and gender-matched mice. No statistical methods were used to predetermine sample size. All surgeries and echocardiographic studies were carried out blinded to the genotype of the mice during the experiments and outcome assessments. CD1 mice (Charles River Laboratories) were used for drug-tested studies. Drug administration. Tamoxifen (Sigma) was prepared by dissolving in sesame oil (Sigma) to a concentration of 10 mg ml^-1. For the MADM clonal analysis, 14 consecutive injections of tamoxifen were administered, and mice were euthanized 2 weeks after the last injection. For injection of Paromomycin and Neomycin, mice were administered twice daily. Mice were euthanized at the same time of day to limit circadian variability. Immunofluorescence staining. Heart cryosections were equilibrated with antigen retrieval buffer with 1 mM EDTA or epitope retrieval buffer (IHC World). Samples were permeabilized and blocked with 0.3% Triton X-100 and 10% serum from the host animal of secondary antibodies in PBS for 20 minutes at room temperature. Then, samples were incubated overnight at 4° C. with the primary antibodies. After three washes with PBS, samples were incubated for 1 hour at room temperature with corresponding fluorescence secondary antibodies conjugated to Alexa Fluor 488 or 555 (Invitrogen) at 1:400. The slides were mounted in Vectashield Antifade Mounting Medium (Vector Laboratories). Slides were viewed under Nikon fluorescence or Zeiss LSM 510 confocal microscopes. Primary antibodies used: phospho histone […] (EMD Millipore, 06-570; 1:100), aurora B kinase (Sigma, A5102; 1:25) to analyse cell cycle re-entry; troponin T, cardiac isoform Ab-1, clone 13-11 (Thermo Scientific, MS-295-P1; 1:200), sarcomeric α-actinin (Abcam, ab68167; 1:200) to identify cardiomyocytes. DAPI or Hoechst was used for nuclear staining. Images were obtained using a Nikon Eclipse Ni or Nikon A1 laser scanning confocal microscopes. WGA staining and cardiomyocyte size quantification. WGA staining and quantification was performed as previously described. In brief, the slides were incubated with WGA conjugated to Alexa Fluor 488 ([…], Life Technologies) for 1 hour at room temperature following washing with PBS. To quantify the cross-sectional cell size, three to five independent hearts per group with three different views and positions, each from left and right ventricles, and septum were captured at 40× magnification. ImageJ was used to quantify the size of cardiomyocytes that were round and contained a nucleus. At least 500 cells per sample were quantified. Cardiomyocyte isolation. Adult hearts were freshly collected and fixed in 4% paraformaldehyde at 4° C. overnight. The hearts were minced to smaller pieces and subsequently incubated with collagenase D (2.4 mg ml^-1, Roche) and B (1.8 mg ml^-1, Roche) for 12 h at 37° C. using an end-over-end shaker. The supernatants were collected via 160-μm nylon mesh filter, and the procedure was repeated until no more cardiomyocytes were dissociated from the tissue. […]
# [4] = test system: cardiomyocytes of neonatal heart; experiment: Cardiomyocyte proliferation in neonatal CD-1 mice; assay type: in vivo, mouse; details: 300 mg/kg, i.p from p1 till p14, compared with controls
# Method: Paromomycin-neomycin was administered to neonatal CD-1 mice at 300 mg/kg, i.p from p1 till p14. Hearts were collected for histological analysis (FIG. 4A).
# Immunofluorescence staining. Heart cryosections were equilibrated with antigen retrieval buffer with 1 mM EDTA or epitope retrieval buffer (IHC World). Samples were permeabilized and blocked with 0.3% Triton X-100 and 10% serum from the host animal of secondary antibodies in PBS for 20 minutes at room temperature. Then, samples were incubated overnight at 4° C. with the primary antibodies. After three washes with PBS, samples were incubated for 1 hour at room temperature with corresponding fluorescence secondary antibodies conjugated to Alexa Fluor 488 or 555 (Invitrogen) at 1:400. The slides were mounted in Vectashield Antifade Mounting Medium (Vector Laboratories). Slides were viewed under Nikon fluorescence or Zeiss LSM 510 confocal microscopes. Primary antibodies used: phospho histone H3 Ser10 (EMD Millipore, 06-570; 1:100), aurora B kinase (Sigma, A5102; 1:25) to analyse cell cycle re-entry; troponin T, cardiac isoform Ab-1, clone 13-11 (Thermo Scientific, MS-295-P1; 1:200), sarcomeric α-actinin (Abcam, ab68167; 1:200) to identify cardiomyocytes. DAPI or Hoechst was used for nuclear staining. Images were obtained using a Nikon Eclipse Ni or Nikon A1 laser scanning confocal microscopes.
# [5] = test system: mouse adult heart after myocardial infarction (MI); experiment: Cardiac repair after myocardial infarction (LAD ligation) in adult mice; assay type: in vivo
# Method: In another exemplary method, the ability of the aminoglycosides on cardiac repair and heart regeneration was assessed in the mouse adult heart after following myocardial infarction (MI). MI was induced in adult mice by permanent ligation of the proximal left anterior descending coronary artery. This was followed by examining the expression of cell cycle inhibitors two weeks after MI (one week after drug(s) injection) by western blot analysis. […] Meanwhile, MI was induced to monitor the pharmacodynamics of the administered drug(s) to improve cardiac function and promote heart regeneration for 8-weeks (FIG. 5A). One week after injury, paromomycin and paromomycin-neomycin combo (200 mg/kg/day, i.p.) was administered while assessment of left ventricular ejection fraction (LVEF) by echocardiography was performed 1-week post-surgery, 1 week after drug(s) administration and every 2 weeks thereafter until 8 weeks post-surgery. Murine model of MI. Induction of adult anterior wall MI was performed as similar to the methods described in Nguyen et al., Nature (2020) 582, 271-276, the disclosure of which is incorporated herein in its entirety. In brief, three-month-old mice were subjected to MI by ligation of the proximal aspect of the LAD coronary artery. Mice were anaesthetized in an airtight chamber using 4% isoflurane, endotracheally intubated, and ventilated using a volume-control ventilator with 100% O2, supplemented with 2% vaporized isoflurane (Harvard Apparatus). Following lateral thoracotomy and pericardiectomy, the LAD coronary artery was identified along the anterior wall of the LV. Prolene sutures (6-0 non-absorbable) was used to ligate the LAD. Proper occlusion of the LAD artery was noted by three criteria: immediate blanching of the LV anterior wall myocardium below the ligature, echocardiographic assessment 7 days post-surgery showing an ejection fraction in the range of 45-65%, and histological analysis. Vicryl sutures (6-0 absorbable) were used to close the thoracic cavity. Drugs administrated one week after MI. Mice were subjected to echocardiography at serial time points and then euthanized at 3 months after ligation. Hearts were collected and processed for histology and immunohistochemistry. Fibrotic scar size was measured using MIQuant similar to the method described in Nascimento et al., PLOS One (2011) 6, e25045, the disclosure of which is incorporated herein in its entirety. Transthoracic echocardiography. Assessment of in vivo heart function on conscious, non-sedated mice was performed using a Vevo2100 micro-ultrasound system, M[…] probe (VisualSonics) at baseline, 1 week after injury, 1 week after drug administration, and 4, 8, 12 and 16 weeks after occlusion. Echocardiographic M-mode images were obtained from a parasternal short-axis view at the level of the papillary muscles. Left ventricular internal diameters at end diastole (LVIDd) and end systole (LVIDs) were measured from M-mode recordings. Six representative contraction cycles were selected for analysis, and average indexes (LVIDd, LVIDs and fractional shortening) were calculated for each mouse. All echocardiography measurements were performed in a blinded manner. Histology. Hearts were collected and fixed in 4% paraformaldehyde in PBS overnight at 4° C. and then processed for either paraffin or cryo embedding. […] Protein concentration was quantified using Pierce BCA protein assay kit (Pierce Biotechnology), with three biological replicates. […]
# HOXB13 = target: T1, HOXB13 (Mus musculus, UniProt P70321); experiment: Thermal shift assay on purified HOXB13 DBD; assay type: binding
# T1 construct: made in house; host or cells: E. coli Rosetta (DE3) pLysS
# T1 sequence (P70321 218-277 limits assumed): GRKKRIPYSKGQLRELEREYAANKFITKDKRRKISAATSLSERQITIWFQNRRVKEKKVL
# Method: In another exemplary method, thermal shift analysis of aminoglycosides towards Meis1 and HOXB13 was performed. Initially, […] binding domains (DBDs) of Meis1 and HOXB13 were cloned, expressed, and purified to conduct the thermal shift assay (FIGS. 2A-2B). […] Protein Expression and Purification. mMeis1 and mHoxb13 were subcloned into pETDuet vector with noncleavable N-terminal 6×His tag and transformed into Rosetta (DE3) pLysS cells (Novagen). Target protein were expressed in cultures grown in autoinduction media at 18° C. overnight. The culture was harvested and sonicated in lysis buffer (20 mM Tris [pH=8.0], 1 M NaCl, 0.5 mM DTT, and supplemented with protease inhibitors). […] The eluate was concentrated and purified by gel filtration chromatography. The peak fractions were collected and concentrated to about . . . 0 mg/mL for crystallization screening.
# [6] = adult CD-1 mice, i.p., 2 weeks, paromomycin 200 mg/kg, paromomycin-neomycin 300 mg/kg, Anti-Cnx43/DAPI, compared with controls
# [7] = adult mice, i.p., 2 weeks, Paro 200 mg/kg/day, Paro/Neo combo 300 mg/kg/day, compared to control
# [8] = adult mice, i.p., 2 weeks, Paro 200 mg/kg/day, Paro/Neo combo 300 mg/kg/day, compared to control-treated mice
# [9] = two weeks after MI (one week after drug(s) injection)
compound,measurement,setting,value
"COc1ccc([C@@H]2CC(=O)c3c(O)cc(O[C@@H]4O[C@H](CO[C@@H]5O[C@@H](C)[C@H](O)[C@@H](O)[C@H]5O)[C@@H](O)[C@H](O)[C@H]4O)cc3O2)cc1O [Hesperidin, hesperidin]",luciferase transcriptional activity for Meis1,[1],poor inhibitory profile
same,luciferase transcriptional activity for HOXB13,[2],poor inhibitory profile
"NC[C@@H]1O[C@H](O[C@H]2[C@@H](O)[C@H](O[C@@H]3[C@@H](O)[C@H](N)C[C@H](N)[C@H]3O[C@H]3O[C@H](CO)[C@@H](O)[C@H](O)[C@H]3N)O[C@@H]2CO)[C@H](N)[C@@H](O)[C@@H]1O [Paromomycin, paromomycin]",luciferase transcriptional activity for Meis1,[1],significant downregulation
same,luciferase transcriptional activity for HOXB13,[2],significant downregulation
same,RFP+ and GFP+ single-labelled daughter cardiomyocytes,"[3]; Mosaic Analysis with Double Markers (MADM) mice, lineage tracing, compared to control-treated mice",significant increased
same,bi- and multi-nucleation of isolated cardiomyocytes,[3]; [6],significant decrease
same,mono-nucleation of isolated cardiomyocytes,[3]; [6],significant increase
same,cardiomyocytes cell size via wheat germ agglutinin (WGA) staining,[3]; [7],significant reduction
same,cardiomyocytes undergoing cytokinesis via Aurkb+ staining,[3]; [7],significant increase
same,number of cardiomyocytes following dissociation of the heart by collagenase digestion,"[3]; adult mice, i.p., 2 weeks, Paro 200 mg/kg/day, Paro/Neo combo 300 mg/kg/day, compared to control-treated hearts",significantly higher number
same,heart weight (HW)/body weight (BW) ratio,[3]; [8],no significant difference
same,pH3+ cardiomyocytes (mitosis marker),[3]; [8],significant increase
same,cardiomyocyte cytokinesis marker (AurkB and anti-cTnT co-immunostaining),[4],significant increase
same,cardiomyocyte mitosis marker (anti-pH3 and anti-cTnT co-immunostaining),[4],significant increase
same,left ventricular ejection fraction (LVEF) by echocardiography,"[5]; 8 weeks post-surgery, drug i.p. from one week after injury, compared to control-treated mice",maintain the LVEF
same,wet to dry lung ratio,"[5]; MI mouse model, Paromomycin 200 mg/kg, i.p., Paromomycin-Neomycin 300 mg/kg, 8 weeks, compared to controls",significant decrease
same,fibrotic scar (size),"[5]; histological analysis, 8 weeks post-MI, compared to control-treated hearts",trending decline
same,"p15/16 proteins (cell cycle inhibitor), western blot",[5]; [9],decrease
same,"p21 protein (cell cycle inhibitor), western blot",[5]; [9],decrease
neomycin,luciferase transcriptional activity for Meis1,[1],significant downregulation
same,luciferase transcriptional activity for HOXB13,[2],significant downregulation
same,change in the melting temperature of HOXB13,HOXB13,noticeable change

# Reference: patent publication US20250134917A1, “COMPOSITIONS AND METHODS OF REGENERATING HEART TISSUES WITH AMINOGLYCOSIDES” (The Board of Regents of The University of Texas System, priority 2022, published 2025)
